Holding throughout (assay type): binding
For assay [1], the target named is T1, 14-3-3σ(C42) (Homo sapiens, UniProt P31947, C38N/N42C).
T1 construct: with a truncated C-terminus after T231; His6 (N, cleaved yes); made in house; host or cells: E. coli NiCo21 (DE3), pPROEX HTb
T1 sequence (P31947 1-231 C38N/N42C): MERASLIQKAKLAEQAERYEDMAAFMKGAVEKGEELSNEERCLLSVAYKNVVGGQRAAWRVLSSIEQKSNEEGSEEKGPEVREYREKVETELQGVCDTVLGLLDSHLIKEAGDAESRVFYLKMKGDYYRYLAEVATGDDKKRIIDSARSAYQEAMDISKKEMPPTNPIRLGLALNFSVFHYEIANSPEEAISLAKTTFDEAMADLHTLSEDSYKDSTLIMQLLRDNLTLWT
Put plainly: Fluorescence anisotropy titration of 14-3-3σ(C42) to fluorescein-labeled partner peptides. On the procedure: The 14-3-3/ER stabilizer FC (Fusicoccin) inhibits estradiol dependent signaling. FC (a natural product) inhibits dimerization of E2/ER and tamoxifen/ER. FC also blocks DNA binding and transcription (482) (PNAS May 28, 2013 110 (22) 8894-8899). Disulfide trapping for stabilizers of 14-3-3σ/ERα-pp (15-mer phosphopeptide representing the 14-3-3σ binding motif of ERα), was measured (J. Am. Chem. Soc. 2019, 141, 8, 3524-3531, FIG. 1b). Different cysteine residues yield different 14-3-3/client stabilizing chemical moieties. At each tethering residue, bound chemical moieties can be competitive with peptide, noncompetitive, or cooperative (J. Am. Chem. Soc. 2019, 141, 8, 3524-3531, FIG. 1c). […] 14-3-3σ (C42) expected mass: 26509 Da, βME capped mass: 26585 Da, protein-disulfide conjugate mass: 26795 Da. LC/MS dose response curves showing percentage of protein conjugate formation for titrations of disulfides to 14-3-3σ (C42) apo and bound to ERα-pp, were measured. […] LC/MS dose response curves showing percentage of protein conjugate formation for titrations of disulfides to 14-3-3σ (C42) apo and bound to ERα-pp, were measured. […] Dose-response curve of Fragment 1, which induces ERα binding, were measured (J. Am. Chem. Soc. 2019, 141, 8, 3524-3531, FIG. 2a-2b, supporting information). Small molecules stabilize 14-3-3σ/Erα-pp binding. […] Schematic of experimental design and Plot of anisotropy (mean+SD) for titrations of Frag001, Frag002, FC-A (natural product fusicoccane-A), or DMSO control to fluorescein-Erα-pp and 1 μM 14-3-3σ (C42) (J. Am. Chem. Soc. 2019, 141, 8, 3524-3531, FIG. 3a-3b). Dose-response curves were obtained by MS by analyzing % tethering for titrations of Fragment 2 to 14-3-3σ apo (− peptide;) or bound to different interaction partner-derived peptide motifs; ERα-pp ( ), TASK3-pp ( ), ExoS ( ) or TAZ-pp ( ), starting from 1 mM (J. Am. Chem. Soc. 2019, 141, 8, 3524-3531, FIG. 4b). LC/MS screening data of hits for 14-3-3σ (C42)+/−ERα-pp was collected. The deconvoluted LC/MS spectra of disulfide fragments bound to 14-3-3σ (C42) alone or in complex with ERα-pp were determined with 14-3-3σ (C42) expected mass: 26509 Da, βME capped mass: 26585 Da, protein-disulfide conjugate mass: between 26752-26919 Da. Fragments bound preferentially in the presence of ERα-pp: 959996 (1), 916971, and 917137 were termed ‘cooperative’. […] Fluorescence anisotropy (r) of fluorescein-ERα-pp versus concentration of 6 or FC-A binding to 14-3-3σ(C42) or 14-3-3σ(C45) was tested. […]
Fluorescence Anisotropy. […] Fluorescence anisotropy measurements were performed directly and after overnight incubation at room-temperature, using a Tecan Infinite F500 plate reader (filter set λex: 485±20 nm, λem: 535±25 nm). […]
Background: Polarisation of emitted light reports the rotation of a fluorescent probe.

For assay [2], the target named is T2, Pin1_72/14-3-3 complex (Homo sapiens, UniProt P61981).
T2 construct: the full length 14-3-3γ was dialysis against 25 mM HEPES pH 7.5; made in house; host or cells: E. coli BL21(DE3), pPROEX HTb
T2 sequence (P61981 1-247): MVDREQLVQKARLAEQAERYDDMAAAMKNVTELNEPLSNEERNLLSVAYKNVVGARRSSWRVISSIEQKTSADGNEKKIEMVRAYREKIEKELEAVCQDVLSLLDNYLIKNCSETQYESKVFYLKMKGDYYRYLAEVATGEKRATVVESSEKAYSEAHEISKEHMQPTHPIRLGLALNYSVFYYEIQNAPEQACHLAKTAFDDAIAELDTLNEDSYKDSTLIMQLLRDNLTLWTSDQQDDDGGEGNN
Put plainly: Fluorescence anisotropy compound titration, Pin1_72/14-3-3 (CC50). On the procedure:
Site-Directed Shift base fragment Screening. […] As measure of activity the inflection point of the curve was determined, representing the half-maximum complex formation (CC50).
(§1) Fluorescence Anisotropy (FA) Assays.

The target in assay [3] is T3, Pin1_72/14-3-3γ (Homo sapiens, UniProt P61981+Q13526).
T3 construct: the full length 14-3-3γ was dialysis against 25 mM HEPES pH 7.5; made in house; host or cells: E. coli BL21(DE3), pPROEX HTb
The experiment in a line: Fluorescence anisotropy protein titration, Pin1_72/14-3-3γ at constant compound. Conditions: based on internal DMSO control and 100 μM fragment.
Excerpt: Inspired by the binding poses of 3 and 9 we combined their structural features to improve stabilization. […] In case of complex stabilization, a left shift of apparent KD values is expected, here described as stabilization factors (SF).
as §1

The target of assay [4] is T4, 14-3-3/Pin1_72 complex (Homo sapiens, UniProt P61981).
T4 construct: the full length 14-3-3γ was dialysis against 25 mM HEPES pH 7.5; made in house; host or cells: E. coli BL21(DE3), pPROEX HTb
The experiment in a line: Cooperativity analysis, 14-3-3 titrations at varied constant fragment concentration. From the text: Cooperativity in ternary complex formation. In contrast to PPI inhibition, where affinity to one of the protein pockets is the driving force for drug development, design of molecular glues is driven by cooperative ternary complex formation. Both CC50 and SF values are concentration dependent values and might differ based on assay design. […] Cooperative complex formation is often accompanied by structural changes of the interface of a complex which translates to increased stability of the ternary com-plex. In order to assess cooperativity of the ternary complex, fragments 13, 23, 27 and 28 were selected for cooper-activity analysis. The α-factor of the fragments were determined using 14-3-3 titrations in the presence of varied, but constant concentration of fragment in a dose-dependent manner. […] Further, the interval of change in stabilization further describes the systems cooperative behaviour.
However, at higher concentration regimes significant assay interference was observed, probably due to compound aggregation. Fragments 23, 27 and 28 all reached saturation or approached saturation enabling accurate determination of α-factor. […] KD remains constant also at higher concentrations of FC-A, indicating non-specific effects.

Assay [5] has as its target T5, 14-3-3σ(C42)/ERα-pp complex (Homo sapiens, UniProt P31947, C38N/N42C).
T5 construct: with a truncated C-terminus after T231; His6 (N, cleaved yes); made in house; host or cells: E. coli NiCo21 (DE3), pPROEX HTb
Put plainly: Disulfide tethering primary screen, intact protein LC/MS, protein-peptide complex. On the procedure:
Apo-14-3-3σ or the 14-3-3σ/ERα-pp complex was screened against a 1600-member disulfide library under mildly reducing conditions (100 μM betamercaptoethanol; βME). Conjugate formation for each individual reaction was analyzed by intact protein MS. Three peaks observed in mass spectra corresponded to apo, βME-capped, and fragment-conjugated 14-3-3σ. The ‘percent tethering’, defined as the intensity of the fragment-specific conjugate protein peak divided by the sum of the intensities for all protein peaks, was calculated for each individual experiment using an automated pipeline. (492)
Disulfide Tethering screening and data processing. The primary screening was performed by incubating the target with individual compounds in a 384-well plate format. A custom library of 1600 disulfide-containing fragments of the UCSF Small Molecule Discovery Center (SMDC), synthesized as previously reported, was available as 50 mM stock solutions in DMSO. (496, 497) For screening, 14-3-3σ wild-type and Cys-mutants were diluted to 100 nM in buffer (10 mM Tris, 100 μM betamercaptoethanol (βME), pH 8.0) and plated in 384-well plates (15 μL/well). 30 nL of each fragment was pinned from the library master plates into the protein samples using a Biomek FX (Beckman) to give a final concentration of 100 μM. The duplicate experiments additionally contained 200 nM ERα-pp. The reaction mixtures were incubated for 3 hours at RT before being subjected to LC/MS (I-class Acquity UPLC/Xevo G2-XS Quadrupole Time of Flight mass spectrometer, Waters). Data collection and automated processing followed a custom workflow, as previously described. (492) All compounds described in the text were from the same lot as the original screening material.

Results on 12 compounds are retold here after patent US20230142739A1, “PROTEIN-PROTEIN INTERACTION STABILIZERS” (The Regents of the University of California, priority 2020, published 2023).

pEC50: −log10 of the molar value. Where two headings read alike, the source gives them in different places. Non-standard residues stand in square brackets, D forms with d. Residues, ends and D or L forms follow the SMILES beside them. *: point of attachment. 5FAM = O=C1OC2(c3ccc(O)cc3Oc3cc(O)ccc32)c2ccc(C(=O)*)cc21; pT = C[C@@H](OP(=O)(O)O)[C@H](N)C(=O)O; pS = N[C@@H](COP(=O)(O)O)C(=O)O

`CC[C@H](C)[C@H](NC(=O)[C@H](Cc1ccc(O)cc1)NC(=O)[C@H](Cc1ccc(O)cc1)NC(=O)[C@H](CCCCN)NC(C)=O)C(=O)N[C@H](C(=O)NCC(=O)N[C@@H](CCC(=O)O)C(=O)N[C@@H](C)C(=O)N[C@@H](CCC(=O)O)C(=O)NCC(=O)N[C@@H](Cc1ccccc1)C(=O)N1CCC[C@H]1C(=O)N[C@@H](C)C(=O)N[C@H](C(=O)N[C@H](C(=O)O)C(C)C)[C@@H](C)OP(=O)(O)O)[C@@H](C)O` [ERα-pp] (Ac-KYYITGEAEGFPA[pT]V-OH): the pEC50 in assay [1] was 6.52. In turn, `CC(C)C[C@H](NC(=O)CNC(=O)[C@H](CCC(N)=O)NC(=O)CNC(=O)[C@H](Cc1c[nH]cn1)NC(=O)CNC(=O)[C@H](CO)NC(=O)c1ccc2c(c1)C(=O)OC21c2ccc(O)cc2Oc2cc(O)ccc21)C(=O)N[C@@H](CC(C)C)C(=O)N[C@@H](CC(=O)O)C(=O)N[C@@H](C)C(=O)N[C@@H](CC(C)C)C(=O)N[C@@H](CC(=O)O)C(=O)N[C@@H](CC(C)C)C(=O)N[C@@H](C)C(=O)N[C@@H](CO)C(N)=O` [ExoS] had a pEC50 in assay [1] of 4.95. With `O=Cc1ccc(-n2ccnc2)c(Cl)c1` [L2], the “activity in FA assay” value in assay [2] is recorded as “significant complex formation”. The “SF (fold stabilization)” value in assay [3] turned out to be 0.8. The compound `CC(C)[C@H](NC(=O)[C@H](COP(=O)(O)O)NC(=O)[C@H](CCCCN)NC(=O)[C@H](CCCNC(=N)N)NC(=O)[C@H](CCCNC(=N)N)NC(=O)c1ccc2c(c1)C(=O)OC21c2ccc(O)cc2Oc2cc(O)ccc21)C(=O)O` [TASK3-pp, KRRKpS^373V-OH] (5FAM-RRK[pS]V-OH) had a pEC50 in assay [1] (fluorescein-labeled peptide) of 6.70. On the same count and under the same terms, the figure for `CC(C)C[C@H](NC(=O)[C@H](CCC(N)=O)NC(=O)[C@H](CC(C)C)NC(=O)[C@H](CO)NC(=O)[C@H](C)NC(=O)[C@@H]1CCCN1C(=O)[C@H](CO)NC(=O)[C@H](COP(=O)(O)O)NC(=O)[C@H](Cc1c[nH]cn1)NC(=O)[C@H](CO)NC(=O)[C@H](CCCNC(=N)N)NC(=O)c1ccc2c(c1)C(=O)OC21c2ccc(O)cc2Oc2cc(O)ccc21)C(=O)NCC(=O)N[C@H](C(N)=O)[C@@H](C)O` [TAZ-pp, RSHpS^89SPASLQ] (5FAM-RSH[pS]SPASLQLGT-NH2) is 5.66. `O=Cc1ccc(-n2ccnc2-c2ccccc2Br)cc1Br` [compound 23, 2-bromo-4-(2-(2-bromophenyl)-1H-imidazol-1-yl)benzaldehyde]: in assay [3], the “SF (fold stabilization)” value came to 18.9. In addition, the “cooperativity factor (α-factor)” value in assay [4] is reported as “approximately 60”. With `O=Cc1ccc(-n2ccnc2-c2ccc(O)cc2)cc1Br` [compound 25, 2-bromo-4-(2-(4-hydroxyphenyl)-1H-imidazol-1-yl)benzaldehyde], the “activity in FA assay” value in assay [2] was “limited effect”.

As for `O=Cc1ccc(-n2ccnc2-c2cccnc2)cc1Br` [compound 26, 2-bromo-4-(2-(pyridin-3-yl)-1H-imidazol-1-yl)benzaldehyde], the “activity in FA assay” value in assay [2] is “limited effect”. The “SF (fold stabilization)” value in assay [3] was determined as 2.27. `NCCSSCCCC(=O)NCC(c1ccccc1)c1ccccc1` [compound 916971]: the “hit category (binding in presence vs absence of ERα-pp)” value in assay [5] is listed as “cooperative”. Same read-out and setting: the entry for `CN(C)CCSSCCNC(=O)c1ccccc1Sc1ccccc1C#N` [compound 917137] is “cooperative”; for `CN(C)CCSSCCNC(=O)C1CCN(C(=O)c2ccccc2NC(=O)c2ccccc2)CC1` [compound 917805] it is “neutral”. Regarding `CN(C)CCSSCCn1cc(CN2C(=O)C(=O)c3ccccc32)nn1` [compound 957838], the “hit category (binding in presence vs absence of ERα-pp)” value in assay [5] is listed as “neutral”.

For orientation: pEC50 means the EC50 on a negative log10 scale, so that one unit is a factor of ten. Low values mean a high EC50, high ones a low EC50.
